Data on 15 compounds can be found in ChEMBL document CHEMBL1143796, “Synthesis and antimicrobial activity of 1-(4-aryl-2-thiazolyl)-3-(2-thienyl)-5-aryl-2-pyrazoline derivatives” (2007).

Structures are written as SMILES. Converted amounts (≈) assume the structure as drawn.

For assay [1], the system named is Salmonella typhimurium. The experiment in a line: Antibacterial activity against Salmonella Typhimurium NRRL B4420 by microbroth dilution method. It counts as functional, Salmonella enterica subsp. enterica serovar Typhimurium. As to conditions: Salmonella enterica.
Assay [2] concerns Enterococcus faecalis. The experiment in a line: Antibacterial activity against Streptococcus faecalis NRRL B14617 by micro-broth dilution method. It is filed as functional.
In assay [3] the test system is Escherichia coli. In words: Antibacterial activity against Escherichia coli NRRL B3704 by microbroth dilution method. It counts as functional.
In assay [4] the test system is Aeromonas hydrophila. The experiment in a line: Antibacterial activity against Aeromonas hydrophila by micro-broth dilution method. It counts as functional.
The test system of assay [5] is Bacillus cereus. The experiment in a line: Antibacterial activity against Bacillus cereus NRRL B3711 by micro-broth dilution method. It counts as functional.
The test system of assay [6] is Staphylococcus aureus. In words: Antibacterial activity against Staphylococcus aureus NRRL B767 by micro-broth dilution method. It is filed as functional.
Assay [7] relates to Candida albicans. The experiment in a line: Antifungal activity against Candida albicans by micro-broth dilution method. It counts as functional.
Assay [8] has as its system Nakaseomyces glabratus. The experiment in a line: Antifungal activity against Candida glabrata by broth dilution antifungal susceptibility testing. It is filed as functional.

In the case of `O=[N+]([O-])c1ccc(-c2csc(N3N=C(c4cccs4)CC3c3cccnc3)n2)cc1` (stereo not given), the MIC in assay [1] turned out to be 125 µg/mL (≈ 288 µM); in assay [2], 125 µg/mL (≈ 288 µM); in assay [3] it was 250 µg/mL (≈ 577 µM); in assay [4] it was 31.2 µg/mL (≈ 72.1 µM); in assay [5], 125 µg/mL (≈ 288 µM); in assay [6] it was 31.2 µg/mL (≈ 72.1 µM). Moreover, the MIC in assay [7] and in assay [8] was 62.5 µg/mL (≈ 144 µM) throughout.

`c1ccc(-c2csc(N3N=C(c4cccs4)CC3c3ccccn3)n2)cc1` (stereo not given): the minimum inhibitory concentration (MIC) was 125 µg/mL (≈ 322 µM) in assay [1]; 250 µg/mL (≈ 643 µM) in assay [2]; 125 µg/mL (≈ 322 µM) in assay [3]; 62.5 µg/mL (≈ 161 µM) in assay [4]; 250 µg/mL (≈ 643 µM) in assay [5]; 250 µg/mL (≈ 643 µM) in assay [6]. Also, the MIC in assay [7] and in assay [8] was 62.5 µg/mL (≈ 161 µM) in each case.

For the compound `COc1ccc(-c2csc(N3N=C(c4cccs4)CC3c3ccccn3)n2)cc1` (stereo not given), the MIC in assay [1] came to 125 µg/mL (≈ 299 µM); in assay [2], 250 µg/mL (≈ 597 µM); in assay [3], 125 µg/mL (≈ 299 µM); in assay [4], 62.5 µg/mL (≈ 149 µM); in assay [5], 250 µg/mL (≈ 597 µM); in assay [6], 125 µg/mL (≈ 299 µM). Further, the MIC in assay [7] and in assay [8] was 62.5 µg/mL (≈ 149 µM) throughout.

With `Clc1ccc(-c2csc(N3N=C(c4cccs4)CC3c3ccccn3)n2)cc1` (stereo not given), the MIC came to 250 µg/mL (≈ 591 µM) in assay [1]; 250 µg/mL (≈ 591 µM) in assay [2]; 125 µg/mL (≈ 296 µM) in assay [3]; 125 µg/mL (≈ 296 µM) in assay [4]; 250 µg/mL (≈ 591 µM) in assay [5]; 250 µg/mL (≈ 591 µM) in assay [6]. Besides, the MIC in assay [7] and in assay [8] was 125 µg/mL (≈ 296 µM) in each case.

As to `O=[N+]([O-])c1ccc(-c2csc(N3N=C(c4cccs4)CC3c3ccccn3)n2)cc1` (stereo not given), the MIC in assay [1] worked out at 250 µg/mL (≈ 577 µM); in assay [2] it was 500 µg/mL (≈ 1150 µM); in assay [3] it was 125 µg/mL (≈ 288 µM); in assay [4], 125 µg/mL (≈ 288 µM); in assay [5], 500 µg/mL (≈ 1150 µM); in assay [6], 250 µg/mL (≈ 577 µM). For the same compound, the MIC in assay [7] and in assay [8] was 125 µg/mL (≈ 288 µM) in each case.

On to `O=[N+]([O-])c1ccc(-c2csc(N3N=C(c4cccs4)CC3c3ccncc3)n2)cc1` (stereo not given), for which the MIC in assay [1] was determined as 125 µg/mL (≈ 288 µM); in assay [2] it was 250 µg/mL (≈ 577 µM); in assay [3] it was 125 µg/mL (≈ 288 µM); in assay [4], 125 µg/mL (≈ 288 µM); in assay [5], 62.5 µg/mL (≈ 144 µM); in assay [6], 125 µg/mL (≈ 288 µM). Besides, the MIC in assay [7] and in assay [8] was 125 µg/mL (≈ 288 µM) in each case.

On to `Cc1ccc(-c2csc(N3N=C(c4cccs4)CC3c3cccnc3)n2)cc1` (stereo not given), for which the MIC in assay [1] came to 125 µg/mL (≈ 311 µM); in assay [2] it was 250 µg/mL (≈ 621 µM); in assay [3], 250 µg/mL (≈ 621 µM); in assay [4] it was 250 µg/mL (≈ 621 µM); in assay [5], 250 µg/mL (≈ 621 µM); in assay [6] it was 125 µg/mL (≈ 311 µM). In addition, the MIC in assay [7] and in assay [8] was 125 µg/mL (≈ 311 µM) throughout.

As to `Cc1ccc(-c2csc(N3N=C(c4cccs4)CC3c3ccncc3)n2)cc1` (stereo not given), the minimal inhibitory concentration (MIC) was determined as 125 µg/mL (≈ 311 µM) in assay [1]; 250 µg/mL (≈ 621 µM) in assay [2]; 250 µg/mL (≈ 621 µM) in assay [3]; 125 µg/mL (≈ 311 µM) in assay [4]; 62.5 µg/mL (≈ 155 µM) in assay [5]; 125 µg/mL (≈ 311 µM) in assay [6]. The MIC in assay [7] and in assay [8] was 125 µg/mL (≈ 311 µM) each time.

Turning to `COc1ccc(-c2csc(N3N=C(c4cccs4)CC3c3ccncc3)n2)cc1` (stereo not given), the MIC in assay [1] turned out to be 125 µg/mL (≈ 299 µM); in assay [2] it was 250 µg/mL (≈ 597 µM); in assay [3] it was 125 µg/mL (≈ 299 µM); in assay [4], 125 µg/mL (≈ 299 µM); in assay [5], 62.5 µg/mL (≈ 149 µM); in assay [6], 125 µg/mL (≈ 299 µM). Further, the MIC in assay [7] and in assay [8] was 62.5 µg/mL (≈ 149 µM) in each case.

With `c1ccc(-c2csc(N3N=C(c4cccs4)CC3c3cccnc3)n2)cc1` (stereo not given), the MIC in assay [1] turned out to be 250 µg/mL (≈ 643 µM); in assay [2], 250 µg/mL (≈ 643 µM); in assay [3], 250 µg/mL (≈ 643 µM); in assay [4], 250 µg/mL (≈ 643 µM); in assay [5], 250 µg/mL (≈ 643 µM); in assay [6] it was 125 µg/mL (≈ 322 µM). In addition, the MIC in assay [7] and in assay [8] was 250 µg/mL (≈ 643 µM) each time.

Take `COc1ccc(-c2csc(N3N=C(c4cccs4)CC3c3cccnc3)n2)cc1` (stereo not given): the minimum inhibitory concentration (MIC) in assay [1] is 125 µg/mL (≈ 299 µM); in assay [2] it was 250 µg/mL (≈ 597 µM); in assay [3], 250 µg/mL (≈ 597 µM); in assay [4], 125 µg/mL (≈ 299 µM); in assay [5], 250 µg/mL (≈ 597 µM); in assay [6], 250 µg/mL (≈ 597 µM). In addition, the MIC in assay [7] and in assay [8] was 125 µg/mL (≈ 299 µM) each time.

Consider `Clc1ccc(-c2csc(N3N=C(c4cccs4)CC3c3cccnc3)n2)cc1` (stereo not given), for which the MIC in assay [1] stood at 250 µg/mL (≈ 591 µM); in assay [2], 125 µg/mL (≈ 296 µM); in assay [3], 250 µg/mL (≈ 591 µM); in assay [4], 250 µg/mL (≈ 591 µM); in assay [5], 125 µg/mL (≈ 296 µM); in assay [6], 250 µg/mL (≈ 591 µM). The MIC in assay [7] and in assay [8] was 250 µg/mL (≈ 591 µM) throughout.

Take `Clc1ccc(-c2csc(N3N=C(c4cccs4)CC3c3ccncc3)n2)cc1` (stereo not given): the MIC in assay [1] was 62.5 µg/mL (≈ 148 µM); in assay [2] it was 62.5 µg/mL (≈ 148 µM); in assay [3], 125 µg/mL (≈ 296 µM); in assay [4] it was 62.5 µg/mL (≈ 148 µM); in assay [5] it was 62.5 µg/mL (≈ 148 µM); in assay [6], 62.5 µg/mL (≈ 148 µM). The MIC in assay [7] is 125 µg/mL (≈ 296 µM); in assay [8], 62.5 µg/mL (≈ 148 µM).

On to `c1ccc(-c2csc(N3N=C(c4cccs4)CC3c3ccncc3)n2)cc1` (stereo not given), for which the MIC in assay [1] was found to be 62.5 µg/mL (≈ 161 µM); in assay [2] it was 31.2 µg/mL (≈ 80.4 µM); in assay [3], 250 µg/mL (≈ 643 µM); in assay [4], 31.2 µg/mL (≈ 80.4 µM); in assay [5] it was 31.2 µg/mL (≈ 80.4 µM); in assay [6], 15.6 µg/mL (≈ 40.2 µM). The MIC in assay [7] and in assay [8] was 250 µg/mL (≈ 643 µM) throughout.

Regarding `Cc1ccc(-c2csc(N3N=C(c4cccs4)CC3c3ccccn3)n2)cc1` (stereo not given), the MIC in assay [1] stood at 125 µg/mL (≈ 311 µM); in assay [2] it was 250 µg/mL (≈ 621 µM); in assay [3], 125 µg/mL (≈ 311 µM); in assay [4], 62.5 µg/mL (≈ 155 µM); in assay [5] it was 250 µg/mL (≈ 621 µM); in assay [6], 250 µg/mL (≈ 621 µM). Also, the MIC in assay [7] and in assay [8] was 62.5 µg/mL (≈ 155 µM) in each case.
